Experiments:
HSP90a protein = target: T1, HSP90a protein (Homo sapiens, UniProt P07900); assay: HSP90α-binding fluorescent polarization (FP) assay, BODIPY-labeled RNK04010 probe; details: FP competition with RNK04010 (BODIPY-labeled), 5 nM, 300 min at 25° C.
T1 construct: purchased BPS Bioscience 50298
Procedure, shortened: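 Competitive FP with N-terminal HSP90a; probe at 5 nM final, either BODIPY-labeled triazolone RNK04010 or FITC-geldanamycin. Test compounds as 2.5-fold dilutions from 20 μM to 5.2 nM. Incubated at 25 °C for 300 min (RNK04010) or 120 min (FITC-geldanamycin) before reading polarization.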

[1] = tested on: NCI-H358 human non-small cell lung cancer; assay: NCI-H358 CCK-8 proliferation assay; type: cell-based; details: NCI-H358 cells, 72 hr
Procedure, shortened: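 Three KRAS(G12C) lines are used, MIA PaCa-2 at two mutant copies and the NSCLC lines NCI-H358 and NCI-H23 at one. Each compound is titrated 3-fold from 20 μM to 1.02 nM, and proliferation is scored by CCK-8.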

SMILES: CCC(=O)N1CCN(c2nc(=O)n(-c3ccc(C(=O)NCCOCCOc4ccc(-n5c(O)nnc5-c5cc(C(C)C)c(O)cc5O)cc4)nc3)c3nc(-c4c(O)cccc4F)c(F)cc23)[C@@H](C)C1 [Compound 130, N-(2-(2-(4-(3-(2,4-dihydroxy-5-isopropylphenyl)-5-hydroxy-4H-1,2,4-triazol-4-yl)phenoxy)ethoxy)ethyl)-5-(6-fluoro-7-(2-fluoro-6-hydroxyphenyl)-4-((S)-2-methyl-4-propionylpiperazin-1-yl)-2-oxopyrido[2,3-d]pyrimidin-1(2H)-yl)picolinamide]
- IC50 (HSP90a protein): < 0.1 µM
- EC50 [1]: > 1 µM

SMILES: C=CC(=O)N1CCN(c2nc(NCCC(=O)NCC3CCN(C(=O)C4CCN(Cc5ccc(-n6c(O)nnc6-c6cc(C(C)C)c(O)cc6O)cc5)CC4)CC3)nc3c2CCN(c2cccc4cccc(Cl)c24)C3)C[C@H]1CC#N [Compound 102, (R)-3-((4-(4-acryloyl-3-(cyanomethyl)piperazin-1-yl)-7-(8-chloronaphthalen-1-yl)-5,6,7,8-tetrahydropyrido[3,4-d]pyrimidin-2-yl)amino)-N-((1-(1-(4-(3-(2,4-dihydroxy-5-isopropylphenyl)-5-hydroxy-4H-1,2,4-triazol-4-yl)benzyl)piperidine-4-carbonyl)piperidin-4-yl)methyl)propanamide, trifluoroacetic acid]
- IC50 (HSP90a protein): < 0.1 µM
- EC50 [1]: > 1 µM

SMILES: C=CC(=O)N1CCN(c2nc(NCCC(=O)NCc3ccc(-n4c(O)nnc4-c4cc(C(C)C)c(O)cc4O)cc3F)nc3c2CCN(c2cccc4cccc(Cl)c24)C3)C[C@H]1CC#N [Compound 97, (R)-3-((4-(4-acryloyl-3-(cyanomethyl)piperazin-1-yl)-7-(8-chloronaphthalen-1-yl)-5,6,7,8-tetrahydropyrido[3,4-d]pyrimidin-2-yl)amino)-N-(4-(3-(2,4-dihydroxy-5-isopropylphenyl)-5-hydroxy-4H-1,2,4-triazol-4-yl)-2-fluorobenzyl)propanamide, trifluoroacetic acid]
- IC50 (HSP90a protein): 0.1 to 1 µM
- EC50 [1]: > 1 µM

SMILES: C=CC(=O)N1CCN(c2nc(NCCC(=O)N3CCC(Cc4ccc(-n5c(O)nnc5-c5cc(C(C)C)c(O)cc5O)cc4)CC3)nc3c2CCN(c2cccc4ccccc24)C3)C[C@H]1CC#N [Compound 84, (R)-2-(1-acryloyl-4-(2-((3-(4-(4-(3-(2,4-dihydroxy-5-isopropylphenyl)-5-hydroxy-4H-1,2,4-triazol-4-yl)benzyl)piperidin-1-yl)-3-oxopropyl)amino)-7-(naphthalen-1-yl)-5,6,7,8-tetrahydropyrido[3,4-d]pyrimidin-4-yl)piperazin-2-yl)acetonitrile, trifluoroacetic acid]
- IC50 (HSP90a protein): 0.1 to 1 µM
- EC50 [1]: 0.1 to 1 µM

SMILES: CC(=O)N1CCN(c2nc(NCCC(=O)N3CCC(Cc4ccc(-n5c(O)nnc5-c5cc(C(C)C)c(O)cc5O)cc4)CC3)nc3c2CCN(c2cc(O)cc4ccccc24)C3)CC1 [Compound 28, 3-((4-(4-acetylpiperazin-1-yl)-7-(3-hydroxynaphthalen-1-yl)-5,6,7,8-tetrahydropyrido[3,4-d]pyrimidin-2-yl)amino)-1-(4-(4-(3-(2,4-dihydroxy-5-isopropylphenyl)-5-hydroxy-4H-1,2,4-triazol-4-yl)benzyl)piperidin-1-yl)propan-1-one, trifluoroacetic acid]
- IC50 (HSP90a protein): 0.1 to 1 µM
- EC50 [1]: > 1 µM

SMILES: C=CC(=O)N1CCN(c2nc(NCCC(=O)N3CCN(Cc4ccc5c(c4)CN(C(=O)c4ccc(O)cc4O)C5)CC3)nc3c2CCN(c2cc(O)cc4ccccc24)C3)CC1 [Compound 86, 1-(4-(2-((3-(4-((2-(2,4-dihydroxybenzoyl)isoindolin-5-yl)methyl)piperazin-1-yl)-3-oxopropyl)amino)-7-(3-hydroxynaphthalen-1-yl)-5,6,7,8-tetrahydropyrido[3,4-d]pyrimidin-4-yl)piperazin-1-yl)prop-2-en-1-one, trifluoroacetic acid]
- IC50 (HSP90a protein): > 1 µM
- EC50 [1]: > 1 µM

SMILES: C=CC(=O)N1CCN(c2nc(NCCC(=O)NCc3ccc(-n4c(O)nnc4-c4cc(C(C)C)c(O)cc4O)cc3)nc3c2CCN(c2cc(O)cc4ccccc24)C3)CC1 [Compound 7, 3-((4-(4-acryloylpiperazin-1-yl)-7-(3-hydroxynaphthalen-1-yl)-5,6,7,8-tetrahydropyrido[3,4-d]pyrimidin-2-yl)amino)-N-(4-(3-(2,4-dihydroxy-5-isopropylphenyl)-5-hydroxy-4H-1,2,4-triazol-4-yl)benzyl)propanamide, trifluoroacetic acid]
- IC50 (HSP90a protein): 0.1 to 1 µM
- EC50 [1]: > 1 µM

SMILES: C=CC(=O)N1CCN(c2nc(NCCC(=O)N3CCN(Cc4ccc5c(c4F)CN(C(=O)c4ccc(O)cc4O)C5)CC3)nc3c2CCN(c2cc(O)cc4ccccc24)C3)CC1 [Compound 105, 1-(4-(2-((3-(4-((2-(2,4-dihydroxybenzoyl)-4-fluoroisoindolin-5-yl)methyl)piperazin-1-yl)-3-oxopropyl)amino)-7-(3-hydroxynaphthalen-1-yl)-5,6,7,8-tetrahydropyrido[3,4-d]pyrimidin-4-yl)piperazin-1-yl)prop-2-en-1-one, trifluoroacetic acid]
- IC50 (HSP90a protein): > 1 µM
- EC50 [1]: > 1 µM

SMILES: CCC(=O)N1CCN(c2nc(NCCC(=O)NCCOc3ccc(-n4c(O)nnc4-c4cc(C(C)C)c(O)cc4O)cc3)nc3c2CCN(c2cc(O)cc4ccccc24)C3)CC1 [Compound 51, N-(2-(4-(3-(2,4-dihydroxy-5-isopropylphenyl)-5-hydroxy-4H-1,2,4-triazol-4-yl)phenoxy)ethyl)-3-((7-(3-hydroxynaphthalen-1-yl)-4-(4-propionylpiperazin-1-yl)-5,6,7,8-tetrahydropyrido[3,4-d]pyrimidin-2-yl)amino)propanamide, trifluoroacetic acid]
- IC50 (HSP90a protein): 0.1 to 1 µM
- EC50 [1]: > 1 µM

SMILES: CCC(=O)N1CCN(c2nc(NCCC(=O)NCc3ccc(-n4c(O)nnc4-c4cc(C(C)C)c(O)cc4O)cc3F)nc3c2CCN(c2cc(O)cc4ccccc24)C3)CC1 [Compound 33, N-(4-(3-(2,4-dihydroxy-5-isopropylphenyl)-5-hydroxy-4H-1,2,4-triazol-4-yl)-2-fluorobenzyl)-3-((7-(3-hydroxynaphthalen-1-yl)-4-(4-propionylpiperazin-1-yl)-5,6,7,8-tetrahydropyrido[3,4-d]pyrimidin-2-yl)amino)propanamide, trifluoroacetic acid]
- IC50 (HSP90a protein): 0.1 to 1 µM
- EC50 [1]: > 1 µM

SMILES: CC(=O)N1CCN(c2nc(NCCC(=O)N3CCC(Cc4ccc(CN(C)Cc5ccc(-n6c(C(=O)NCC(F)(F)F)nnc6-c6cc(C)c(O)cc6O)cc5)cc4)CC3)nc3c2CCN(c2cccc4ccccc24)C3)C[C@H]1CC#N [Compound 122, (R)-4-(4-(((4-((1-(3-((4-(4-acetyl-3-(cyanomethyl)piperazin-1-yl)-7-(naphthalen-1-yl)-5,6,7,8-tetrahydropyrido[3,4-d]pyrimidin-2-yl)amino)propanoyl)piperidin-4-yl)methyl)benzyl)(methyl)amino)methyl)phenyl)-5-(2,4-dihydroxy-5-methylphenyl)-N-(2,2,2-trifluoroethyl)-4H-1,2,4-triazole-3-carboxamide, trifluoroacetic acid]
- IC50 (HSP90a protein): > 1 µM
- EC50 [1]: > 1 µM

SMILES: C=CC(=O)N1CCN(c2nc(NCCC(=O)N3CCN(Cc4ccc(-n5c(O)nnc5-c5cc(C(C)C)c(O)cc5O)cc4)CC3)nc3c2CCN(c2cccc4cccc(Cl)c24)C3)C[C@H]1CC#N [Compound 100, (R)-2-(1-acryloyl-4-(7-(8-chloronaphthalen-1-yl)-2-((3-(4-(4-(3-(2,4-dihydroxy-5-isopropylphenyl)-5-hydroxy-4H-1,2,4-triazol-4-yl)benzyl)piperazin-1-yl)-3-oxopropyl)amino)-5,6,7,8-tetrahydropyrido[3,4-d]pyrimidin-4-yl)piperazin-2-yl)acetonitrile, trifluoroacetic acid]
- IC50 (HSP90a protein): 0.1 to 1 µM
- EC50 [1]: > 1 µM

SMILES: C=CC(=O)N1CCN(c2nc(NCCC(=O)NCCOc3ccc(-n4c(O)nnc4-c4cc(C(C)C)c(O)cc4O)cc3)nc3c2CCN(c2cc(O)cc4ccccc24)C3)CC1 [Compound 3, 3-((4-(4-acryloylpiperazin-1-yl)-7-(3-hydroxynaphthalen-1-yl)-5,6,7,8-tetrahydropyrido[3,4-d]pyrimidin-2-yl)amino)-N-(2-(4-(3-(2,4-dihydroxy-5-isopropylphenyl)-5-hydroxy-4H-1,2,4-triazol-4-yl)phenoxy)ethyl)propanamide, trifluoroacetic acid]
- IC50 (HSP90a protein): 0.1 to 1 µM
- EC50 [1]: > 1 µM

SMILES: C=CC(=O)N1CCN(c2nc(NCCC(=O)N3CCC(Cc4ccc(-n5c(O)nnc5-c5cc(C(C)C)c(O)cc5O)cc4)CC3)nc3c2CCN(c2cc(O)cc4ccccc24)C3)CC1 [Compound 1, 1-(4-(2-((3-(4-(4-(3-(2,4-dihydroxy-5-isopropylphenyl)-5-hydroxy-4H-1,2,4-triazol-4-yl)benzyl)piperidin-1-yl)-3-oxopropyl)amino)-7-(3-hydroxynaphthalen-1-yl)-5,6,7,8-tetrahydropyrido[3,4-d]pyrimidin-4-yl)piperazin-1-yl)prop-2-en-1-one, trifluoroacetic acid]
- IC50 (HSP90a protein): 0.1 to 1 µM
- EC50 [1]: > 1 µM

SMILES: CCC(=O)N1CCN(c2nc(NCCC(=O)N3CCC(CN4CCN(Cc5ccc(-n6c(O)nnc6-c6ccc(O)cc6O)cc5)CC4)CC3)nc3c2CCN(c2cc(O)cc4ccccc24)C3)CC1 [Compound 65, 1-(4-((4-(4-(3-(2,4-dihydroxyphenyl)-5-hydroxy-4H-1,2,4-triazol-4-yl)benzyl)piperazin-1-yl)methyl)piperidin-1-yl)-3-((7-(3-hydroxynaphthalen-1-yl)-4-(4-propionylpiperazin-1-yl)-5,6,7,8-tetrahydropyrido[3,4-d]pyrimidin-2-yl)amino)propan-1-one, trifluoroacetic acid]
- IC50 (HSP90a protein): 0.1 to 1 µM
- EC50 [1]: > 1 µM

Source: US20230391772A1, “METHODS AND COMPOSITIONS FOR TARGETED PROTEIN DEGRADATION” (Ranok Therapeutics (Hangzhou) Co. Ltd., priority 2020, published 2023)
